{"source": "patent US12202815B2", "about": "“Selective androgen receptor degrader (SARD) ligands and methods of use thereof” (priority 2018, dated 2025)", "key": {"GSK3A": {"target": "T1, GSK3A (Homo sapiens, UniProt P49840)", "T1 construct": "T7 phage fusion or DNA label for qPCR; purchased DiscoveRx", "T1 sequence (P49840 whole entry, the tested form may be a part)": "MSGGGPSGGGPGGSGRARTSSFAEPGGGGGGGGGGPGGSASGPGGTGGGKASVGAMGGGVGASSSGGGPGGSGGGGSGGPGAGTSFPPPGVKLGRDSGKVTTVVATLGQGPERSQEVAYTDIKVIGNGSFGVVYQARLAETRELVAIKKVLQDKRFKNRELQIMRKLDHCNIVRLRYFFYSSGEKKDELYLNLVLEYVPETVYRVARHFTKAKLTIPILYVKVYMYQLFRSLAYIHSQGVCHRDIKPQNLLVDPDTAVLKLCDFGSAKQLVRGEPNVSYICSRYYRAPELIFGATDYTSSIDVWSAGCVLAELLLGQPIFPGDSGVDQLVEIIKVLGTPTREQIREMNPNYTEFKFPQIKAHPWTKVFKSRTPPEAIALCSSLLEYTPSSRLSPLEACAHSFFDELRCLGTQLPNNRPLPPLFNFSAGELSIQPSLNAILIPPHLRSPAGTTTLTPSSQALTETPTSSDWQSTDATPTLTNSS", "test": "KINOMEscan competition binding assay", "conditions": "lower numbers indicate stronger hits", "protocol": "(§1) Screening “hits” are identified by measuring the amount of kinase captured in test versus control samples by using a quantitative, precise and ultra-sensitive qPCR method that detects the associated DNA label.\n(§2) For most assays, kinase-tagged T7 phage strains were grown in parallel in 24-well blocks in an E. coli host derived from the BL21 strain. […] The lysates were centrifuged (6,000×g) and filtered (0.2 μm) to remove cell debris. The remaining kinases were produced in HEK-293 cells and subsequently tagged with DNA for qPCR detection. […] The liganded beads were blocked with excess biotin and washed with blocking buffer (SeaBlock (Pierce), 1% BSA, 0.05% Tween 20, 1 mM DTT) to remove unbound ligand and to reduce non-specific phage binding. […] Test compounds were prepared as 40× stocks in 100% DMSO and directly diluted into the assay. All reactions were performed in polypropylene 384-well plates in a final volume of 0.02 ml. […] The kinase concentration in the eluates was measured by qPCR."}, "in vivo": {"test": "in vivo", "conditions": "male, Sprague Dawley, rat, 20 mpk"}, "[1]": {"system": ">450 human kinases and mutant variants", "test": "KINOMEscan panel cross-reactivity profile", "format": "binding", "conditions": "panel of >460 kinases and mutants", "protocol": "as §1, §2"}, "[2]": {"conditions": "for Conc. 1065: individual rat serum"}, "RLM metabolism half-life": {"test": "RLM metabolism half-life", "format": "in vitro ADME", "conditions": "rat liver microsomes", "protocol": "(§3) The assay was done in a final volume of 0.5 ml in duplicates (n=2). […] After pre-incubation, reaction was started by addition of 1 mM NADPH (pre-incubated at 37° C.). Incubations were carried out in triplicate and at various time-points (0, 5, 10, 15, 30 and 60 minutes) 100 μl aliquots were removed and quenched with 100 μl of acetonitrile containing internal standard. Samples were vortex mixed and centrifuged at 4000 rpm for 10 minutes. The supernatants were transferred to 96 well plates and submitted for LC-MS/MS analysis. As control, sample incubations done in absence of NADPH were included. From % PCR (% Parent Compound Remaining), rate of compound disappearance is determined (slope) and in vitro CLint (μl/min/mg protein) was calculated."}, "[3]": {"test": "High dose Hershberger experiment, 7 days oral", "format": "in vivo, Sprague Dawley rat", "conditions": "for Body wt. on sac. day / Day 0 body wt.: individual animals", "protocol": "Body weights were recorded on day 0 and day 7 (Table 4B). On day 7, animals were sacrificed and organs were observed."}, "MYLK": {"target": "T2, MYLK (Homo sapiens, UniProt Q15746)", "T2 construct": "T7 phage fusion or DNA label for qPCR; purchased DiscoveRx", "T2 sequence (Q15746 whole entry, the tested form may be a part)": "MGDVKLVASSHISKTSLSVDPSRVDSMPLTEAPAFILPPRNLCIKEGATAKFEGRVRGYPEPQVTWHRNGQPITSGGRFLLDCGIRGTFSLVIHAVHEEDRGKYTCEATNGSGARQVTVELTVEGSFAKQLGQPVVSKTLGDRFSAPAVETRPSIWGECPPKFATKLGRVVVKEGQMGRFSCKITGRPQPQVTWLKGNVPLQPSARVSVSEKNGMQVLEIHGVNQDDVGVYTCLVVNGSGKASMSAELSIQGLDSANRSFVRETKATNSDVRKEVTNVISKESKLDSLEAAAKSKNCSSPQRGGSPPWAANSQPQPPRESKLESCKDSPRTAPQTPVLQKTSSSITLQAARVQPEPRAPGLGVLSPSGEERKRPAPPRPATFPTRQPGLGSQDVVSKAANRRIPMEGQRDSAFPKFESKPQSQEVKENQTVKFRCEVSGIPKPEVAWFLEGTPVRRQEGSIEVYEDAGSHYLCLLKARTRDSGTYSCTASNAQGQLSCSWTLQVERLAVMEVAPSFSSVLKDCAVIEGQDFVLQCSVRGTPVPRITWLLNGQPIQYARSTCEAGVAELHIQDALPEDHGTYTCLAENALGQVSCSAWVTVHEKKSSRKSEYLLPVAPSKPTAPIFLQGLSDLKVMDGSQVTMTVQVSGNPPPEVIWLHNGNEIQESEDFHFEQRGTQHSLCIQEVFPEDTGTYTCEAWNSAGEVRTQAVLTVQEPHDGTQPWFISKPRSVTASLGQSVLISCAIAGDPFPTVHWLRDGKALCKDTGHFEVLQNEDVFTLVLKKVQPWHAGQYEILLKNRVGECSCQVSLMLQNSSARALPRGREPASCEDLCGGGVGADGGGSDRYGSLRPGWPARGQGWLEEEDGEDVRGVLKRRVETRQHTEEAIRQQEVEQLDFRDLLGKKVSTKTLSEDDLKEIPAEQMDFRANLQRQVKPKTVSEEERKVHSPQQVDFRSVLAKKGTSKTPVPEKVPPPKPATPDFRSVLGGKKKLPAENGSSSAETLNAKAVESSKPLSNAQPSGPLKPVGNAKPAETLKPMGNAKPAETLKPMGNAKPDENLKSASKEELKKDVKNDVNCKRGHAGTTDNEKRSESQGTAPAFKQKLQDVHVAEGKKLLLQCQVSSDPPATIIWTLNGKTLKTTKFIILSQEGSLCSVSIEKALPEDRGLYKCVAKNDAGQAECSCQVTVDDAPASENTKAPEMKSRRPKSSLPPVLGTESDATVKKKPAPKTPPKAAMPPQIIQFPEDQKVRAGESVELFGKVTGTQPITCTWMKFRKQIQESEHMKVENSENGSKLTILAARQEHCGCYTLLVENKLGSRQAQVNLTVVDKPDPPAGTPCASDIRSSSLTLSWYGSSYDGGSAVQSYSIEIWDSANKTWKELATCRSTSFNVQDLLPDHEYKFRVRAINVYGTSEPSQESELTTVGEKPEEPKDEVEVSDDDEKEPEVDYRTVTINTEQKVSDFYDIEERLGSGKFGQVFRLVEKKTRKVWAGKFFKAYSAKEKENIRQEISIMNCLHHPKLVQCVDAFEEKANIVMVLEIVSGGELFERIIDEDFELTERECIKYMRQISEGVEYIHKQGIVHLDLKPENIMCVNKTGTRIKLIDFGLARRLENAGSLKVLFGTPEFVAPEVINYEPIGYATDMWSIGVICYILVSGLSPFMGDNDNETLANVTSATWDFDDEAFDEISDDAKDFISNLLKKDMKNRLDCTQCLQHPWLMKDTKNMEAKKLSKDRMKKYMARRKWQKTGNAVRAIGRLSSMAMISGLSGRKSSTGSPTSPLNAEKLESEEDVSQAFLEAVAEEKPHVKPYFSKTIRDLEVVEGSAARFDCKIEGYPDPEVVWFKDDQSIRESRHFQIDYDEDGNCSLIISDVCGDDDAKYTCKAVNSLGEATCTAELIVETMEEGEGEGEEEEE", "test": "KINOMEscan competition binding assay", "conditions": "lower numbers indicate stronger hits", "protocol": "as §1, §2"}, ">160 GPCR's": {"system": ">160 GPCR's", "test": "gpcrMAX panel, PathHunter beta-arrestin antagonist primary screen", "format": "cell-based", "protocol": "The assays were performed utilizing the PathHunter beta-arrestin enzyme fragment complementation (EFC) technology.\nThe PathHunter® β-Arrestin assay monitors the activation of a GPCR in a homogenous, non-imaging assay format using a technology developed by DiscoveRx called Enzyme Fragment Complementation (EFC) with β-galactosidase (β-Gal) as the functional reporter. […] EA is fused to β-Arrestin and ED is fused to the GPCR of interest. When the GPCR is activated and β-Arrestin is recruited to the receptor, ED and EA complementation occurs, restoring β-Gal activity which is measured using chemiluminescent PathHunter® Detection Reagents.\nPathHunter cell lines were expanded from freezer. Cells were seeded in a total volume of 20 μL into white walled, 384-well microplates and incubated at 37° C. for the appropriate time prior to testing.\nIntermediate dilution of sample stocks was performed to generate 5× sample in assay buffer. […]\nMicroplates were read following signal generation with a PerkinElmer Envision™ instrument for chemiluminescent signal detection.\nCompound activity was analyzed using CBIS data analysis suite (ChemInnovation, CA). For antagonist mode assays, percentage inhibition was calculated using the following formula: % Inhibition=100%×(1−(mean RLU of test sample−mean RLU of vehicle control)/(mean RLU of EC80 control−mean RLU of vehicle control) [where RLU is relative light unit])."}, "[4]": {"test": "Pharmacokinetics in male Sprague Dawley rats (oral 7 days, iv Day 1)", "conditions": "male, Sprague Dawley, rat, in vivo", "protocol": "At initial dosing, the animals were 12 weeks of age. The animals were group housed (up to three animals/cage/group) in polycarbonate cages with hardwood chip bedding. […] Water was provided fresh daily, ad libitum. […] As necessary, the 12-hour dark cycle was interrupted to accommodate study procedures. […] Individual doses were calculated based on body weights recorded on Day 1 and Day 7 of dose administration. […] A single intravenous dose was administered via a tail vein and blood sample on Day 1.\nAnimals were weighed at the time of animal selection and on Day 1 and Day 7 of dose administration.\nCentrifugation began within 1 hour of collection. Plasma was placed into 96-well tubes with barcode labels. Plasma was maintained on dry ice prior to storage at approximately −70° C. Drug concentrations were measured by established chromatography/mass spectrometry (LC-MS/MS) methods."}, "[5]": {"format": "in vitro ADME", "conditions": "human liver microsomes", "protocol": "as §3"}, "[6]": {"system": "MDVR (enzalutamide-resistant VCaP prostate cancer cells)", "test": "MDVR xenograft in SRG rats, 30 days oral dosing", "conditions": "rat, in vivo", "protocol": "Male Sprague Dawley Rag2−/−; Il2rg−/− (SRG) rats were housed in group of three rats/cage. They were provided with food and water ad libitum and were maintained in a 12 hour light/dark cycle.\nCell inoculations were carried out in a Class II/A2 biosafety cabinet. The surgical space was cleaned with Clidox® and sterile drapes were placed on the surface. The animals were anesthetized using inhaled isoflurane. Prior to injection, the hind flank was shaved and cleaned with alcohol prep pads. Animals were placed back in their home cage and monitored until they recovered and sternal recumbency was observed.\nCell inoculation: All animals were inoculated with a total volume of 500 μL subcutaneously in the left hind flank. The inoculation suspension consisted of 250 μL of cell suspension mixed with 250 μL of Matrigel, diluted to 10 mg/mL working solution with DMEM, which was mixed on ice immediately by pipetting the cells into the Matrigel using a p1000 micropipette fitted with a sterile aerosol resistant tip prior to injection. The final concentration of Matrigel was 5 mg/mL. […] Each needle/syringe was used for only 1 animal.\nSARDs were dissolved at 5-, 10-, or 15 mg/mL in vehicle in a biosafety cabinet using sterile reagents and consumables.\nOne-way ANOVA and Tukey's post-hoc test were used to compare the difference in percent change in body weight among treatment groups. […]"}}, "note": "“And” between values parts separate entries of the source, which are not always exact repeats. Identical values can stand only once. “Also recorded” adds a separate entry of the source. Like-named read-outs stand apart in the source and are kept apart here."}
{"smiles": "C[C@](O)(Cn1cc(C#N)cn1)C(=O)Nc1cnc(C#N)c(C(F)(F)F)c1", "note": "[Compound 1065, (S)-3-(4-cyano-1H-pyrazol-1-yl)-N-(6-cyano-5-(trifluoromethyl)pyridin-3-yl)-2-hydroxy-2-methylpropanamide]", "values": [{"measurement": "Percent Control", "setting": "GSK3A", "value": 6.4, "unit": "%"}, {"measurement": "concentration at 30 h", "setting": "in vivo", "value": 561, "unit": "nM"}, {"measurement": "number of kinases bound (<50% of Percent of Control)", "setting": "[1]", "value": 2}, {"measurement": "Conc. 1065", "setting": "[2]; 1 mg/kg", "value": "81.58 nM and 87.25 nM and 120.1244 nM and 134.5505 nM and 129.9323 nM"}, {"measurement": "Conc. 1065", "setting": "[2]; 5 mg/kg", "value": "967.3936 nM and 798.7984 nM and 630.4879 nM and 691.1901 nM and 485.4264 nM"}, {"measurement": "Conc. 1065", "setting": "[2]; 10 mg/kg", "value": "637.641 nM and 915.1312 nM and 824.8076 nM and 681.9936 nM and 795.917 nM"}, {"measurement": "Conc. 1065", "setting": "[2]; 20 mg/kg", "value": "1286.902 nM and 1298.179 nM and 1360.687 nM and 1397.834 nM and 1193.986 nM"}, {"measurement": "Serum Conc.", "setting": "[2]; Table 2, rats 20 mg/kg, 24-30 hours after last dose", "value": 561, "unit": "nM"}, {"measurement": "Serum Conc.", "setting": "[2]; Table 3, 20 mg/kg Hershberger", "value": 561, "unit": "nM"}, {"measurement": "serum drug level (bioavailability)", "setting": "[2]; rats dosed at 20 mg/kg", "value": 561, "unit": "nM"}, {"measurement": "RLM Metebolism (H.L. min)", "setting": "RLM metabolism half-life", "value": 84, "unit": "min"}, {"measurement": "gross pathology (in words)", "setting": "[3]; 100 and 200 mpk, 7 days", "value": "no gross pathology"}, {"measurement": "Body wt. on sac. day", "setting": "[3]; 100 mpk oral 7 days", "value": "475 g and 333 g and 292 g"}, {"measurement": "Day 0 body wt.", "setting": "[3]; 100 mpk oral 7 days", "value": "404 g and 280 g and 245 g"}, {"measurement": "Body wt. on sac. day", "setting": "[3]; 200 mpk oral 7 days", "value": "326 g and 313 g and 424 g"}, {"measurement": "Day 0 body wt.", "setting": "[3]; 200 mpk oral 7 days", "value": "270 g (2×) and 440 g"}, {"measurement": "Percent Control", "setting": "MYLK", "value": 45, "unit": "%"}, {"measurement": "GPCR cross-reactivity (in words)", "setting": ">160 GPCR's", "value": "no GPCR was inhibited by 50%; also recorded: No GPCR was inhibited by >50%"}, {"measurement": "AUC0-24", "setting": "[4]; iv, 5 mg/kg", "value": 31800, "unit": "ng·h/mL"}, {"measurement": "AUC(0-inf)", "setting": "[4]; iv, 5 mg/kg", "value": 40700, "unit": "ng·h/mL"}, {"measurement": "AUC(0-t)", "setting": "[4]; iv, 5 mg/kg", "value": 31800, "unit": "ng·h/mL"}, {"measurement": "C0", "setting": "[4]; iv, 5 mg/kg", "value": 2510, "unit": "ng/mL"}, {"measurement": "Cmax", "setting": "[4]; iv, 5 mg/kg", "value": 2600, "unit": "ng/mL"}, {"measurement": "DN AUC0-24", "setting": "[4]; iv, 5 mg/kg", "value": 6360}, {"measurement": "Tmax", "setting": "[4]; iv, 5 mg/kg", "value": 0.5, "unit": "h"}, {"measurement": "Vd", "setting": "[4]; iv, 5 mg/kg", "value": 1.86, "unit": "L/kg"}, {"measurement": "clearance", "setting": "[4]; iv, 5 mg/kg", "value": 2.05, "unit": "mL/min/kg"}, {"measurement": "half-life", "setting": "[4]; iv, 5 mg/kg", "value": 10.5, "unit": "h"}, {"measurement": "AUC(0-t)", "setting": "[4]; po, 1 mg/kg", "value": 7300, "unit": "ng·h/mL"}, {"measurement": "AUC0-24", "setting": "[4]; po, 1 mg/kg/day", "value": 7300, "unit": "ng·h/mL"}, {"measurement": "AUC(0-t)", "setting": "[4]; po, 1 mg/kg/day", "value": 7300, "unit": "ng·h/mL"}, {"measurement": "Cmax", "setting": "[4]; po, 1 mg/kg/day", "value": 458, "unit": "ng/mL"}, {"measurement": "DN AUC0-24", "setting": "[4]; po, 1 mg/kg/day", "value": 7300}, {"measurement": "Tmax", "setting": "[4]; po, 1 mg/kg/day", "value": 6, "unit": "h"}, {"measurement": "AUC(0-t)", "setting": "[4]; po, 5 mg/kg", "value": "~35000", "unit": "ng·h/mL"}, {"measurement": "AUC0-24", "setting": "[4]; po, 5 mg/kg/day", "value": 34900, "unit": "ng·h/mL"}, {"measurement": "AUC(0-t)", "setting": "[4]; po, 5 mg/kg/day", "value": 34900, "unit": "ng·h/mL"}, {"measurement": "Cmax", "setting": "[4]; po, 5 mg/kg/day", "value": 2220, "unit": "ng/mL"}, {"measurement": "DN AUC0-24", "setting": "[4]; po, 5 mg/kg/day", "value": 6980}, {"measurement": "Tmax", "setting": "[4]; po, 5 mg/kg/day", "value": 6, "unit": "h"}, {"measurement": "AUC0-24", "setting": "[4]; po, 10 mg/kg/day", "value": 59500, "unit": "ng·h/mL"}, {"measurement": "AUC(0-t)", "setting": "[4]; po, 10 mg/kg/day", "value": 59500, "unit": "ng·h/mL"}, {"measurement": "Cmax", "setting": "[4]; po, 10 mg/kg/day", "value": 3550, "unit": "ng/mL"}, {"measurement": "DN AUC0-24", "setting": "[4]; po, 10 mg/kg/day", "value": 5950}, {"measurement": "Tmax", "setting": "[4]; po, 10 mg/kg/day", "value": 6, "unit": "h"}, {"measurement": "AUC(0-t)", "setting": "[4]; po, 20 mg/kg", "value": 102000, "unit": "ng·h/mL"}, {"measurement": "AUC0-24", "setting": "[4]; po, 20 mg/kg/day", "value": 102000, "unit": "ng·h/mL"}, {"measurement": "AUC(0-t)", "setting": "[4]; po, 20 mg/kg/day", "value": 102000, "unit": "ng·h/mL"}, {"measurement": "Cmax", "setting": "[4]; po, 20 mg/kg/day", "value": 5550, "unit": "ng/mL"}, {"measurement": "DN AUC0-24", "setting": "[4]; po, 20 mg/kg/day", "value": 5120}, {"measurement": "Tmax", "setting": "[4]; po, 20 mg/kg/day", "value": 6, "unit": "h"}, {"measurement": "HLM Metabolism (H.L. min)", "setting": "[5]", "value": "STABLE"}, {"measurement": "HLM % metabolized after 60 min", "setting": "[5]; 60 min", "value": 0, "unit": "%"}, {"measurement": "potency vs 1002 in inhibiting enzalutamide-resistant prostate cancer (in words)", "setting": "[6]", "value": "approximately two fold more potent than 1002"}]}
